Measured values taken from patent US6372488B1, “AMPA-binding human GluR4 receptors” (NPS Allelix Corp., priority 1992, dated 2002).

Molecular target: T1, human GluR4B receptor (Homo sapiens, UniProt P48058)
T1 construct: transported to the cell surface in mature form, lacking the signal peptide and consisting of 881 amino acids; expressed in transfected cells; host or cells: COS-1 cells (ATCC CRL 1650), transient, plasmid pcDNAI/humGluR4B
Assay: ligand binding assay (NMDA), membranes of human GluR4B receptor-producing COS cells
Details: COS cell membrane preparation

T1 sequence (P48058 21-902): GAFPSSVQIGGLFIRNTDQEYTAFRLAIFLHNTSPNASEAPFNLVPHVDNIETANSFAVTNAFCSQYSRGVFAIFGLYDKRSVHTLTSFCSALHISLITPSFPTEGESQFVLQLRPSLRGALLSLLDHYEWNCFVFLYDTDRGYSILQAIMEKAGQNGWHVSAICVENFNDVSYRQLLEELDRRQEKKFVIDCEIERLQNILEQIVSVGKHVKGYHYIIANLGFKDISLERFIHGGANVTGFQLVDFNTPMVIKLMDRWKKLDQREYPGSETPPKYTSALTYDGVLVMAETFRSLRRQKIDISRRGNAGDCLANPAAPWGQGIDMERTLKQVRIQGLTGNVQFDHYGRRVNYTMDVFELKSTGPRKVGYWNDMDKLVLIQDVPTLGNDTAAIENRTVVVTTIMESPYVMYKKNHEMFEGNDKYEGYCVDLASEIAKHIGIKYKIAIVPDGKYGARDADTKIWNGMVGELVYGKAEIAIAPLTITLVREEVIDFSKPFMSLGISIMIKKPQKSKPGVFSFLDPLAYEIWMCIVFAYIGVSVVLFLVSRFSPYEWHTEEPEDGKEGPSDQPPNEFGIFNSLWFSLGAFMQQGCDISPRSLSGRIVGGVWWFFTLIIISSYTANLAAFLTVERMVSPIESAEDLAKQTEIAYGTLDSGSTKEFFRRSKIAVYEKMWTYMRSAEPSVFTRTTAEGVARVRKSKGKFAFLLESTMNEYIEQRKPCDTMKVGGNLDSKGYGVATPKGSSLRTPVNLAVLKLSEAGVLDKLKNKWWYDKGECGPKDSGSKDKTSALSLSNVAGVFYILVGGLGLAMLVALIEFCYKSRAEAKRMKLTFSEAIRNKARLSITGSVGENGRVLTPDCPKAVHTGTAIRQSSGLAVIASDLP

## CN[C@H](CC(=O)O)C(=O)O [NMDA, N-methyl-D-aspartate]
  binding of NMDA to human GluR4B receptor: little or no demonstrable binding
